# US9200001B2, “Triazolyl PDE10 inhibitors” (Merck Sharp & Dohme Corp., priority 2011, dated 2015)
# Molecular target: human PDE10A2 (Homo sapiens (Human), UniProt Q9Y233)
# Experiment: PDE10 fluorescence polarization (IMAP FP) inhibition assay
# Assay type: biochemical
# Details: FAM-labeled cAMP 50 nM, room temperature, read-out: PDE10a Ki
# Procedure: The activity of the compounds in accordance with the present invention as PDE10 inhibitors may be readily determined without undue experimentation using a fluorescence polarization (FP) methodology that is well known in the art (Huang, W., et al., J. Biomol Screen, 2002, 7: 215).
# In a typical experiment the PDE10 inhibitory activity of the compounds of the present invention was determined in accordance with the following experimental method. PDE10A2 was amplified from human fetal brain cDNA (Clontech, Mountain View, Calif.) using a forward primer corresponding to nucleotides 56-77 of human PDE10A2 (Accession No. AF127480, Genbank Identifier 4894716), containing a Kozak consensus sequence, and a reverse primer corresponding to nucleotides 2406-2413 of human PDE10A2 (Accession No. AF127480, Genbank Identifier 4894716). Amplification with Easy-A polymerase (Stratagene, La Jolla, Calif.) was 95° C. for 2 minutes followed by thirty three cycles of 95° C. for 40 seconds, 55° C. for 30 seconds, and 72° C. for 2 minutes 48 seconds. Final extension was 72° C. for 7 minutes. The PCR product was TA cloned into pcDNA3.2-TOPO (Invitrogen, Carlsbad, Calif.) according to standard protocol. AD293 cells with 70-80% confluency were transiently transfected with human PDE10A2/pcDNA3.2-TOPO using Lipofectamine 2000 according to manufacturer specifications (Invitrogen, Carlsbad, Calif.). Cells were harvested 48 hours post-transfection and lysed by sonication (setting 3, 10×5 sec pulses) in a buffer containing 20 mM HEPES, 1 mM EDTA and protease inhibitor cocktail (Roche). Lysate was collected by centrifugation at 75,000×g for 20 minutes. Supernatant containing the cytoplasmic fraction was used for evaluation of PDE10A2 activity. The fluorescence polarization assay for cyclic nucleotide phosphodiesterases was performed using an IMAP® FP kit supplied by Molecular Devices, Sunnyvale, Calif. (product # R8139). IMAP® technology has been applied previously to phosphodiesterase assays (Huang, W., et al., J. Biomol Screen, 2002, 7: 215). Assays were performed at room temperature in 384-well microtiter plates with an incubation volume of 20.2 μL. Solutions of test compounds were prepared in DMSO and serially diluted with DMSO to yield 8 μL of each of 10 solutions differing by 3-fold in concentration, at 32 serial dilutions per plate. 100% inhibition is determined using a known PDE10 inhibitor, which can be any compound that is present at 5,000 times its Ki value in the assay described as follows, such as papaverine (see Siuciak, et al. Neuropharmacology (2006) 51:386-396; Becker, et al. Behav Brain Res (2008) 186(2):155-60; Threlfell, et al., J Pharmacol Exp Ther (2009) 328(3):785-795), 2-{4-[pyridin-4-yl-1-(2,2,2-trifluoroethyl)-1H-pyrazol-3-yl]phenoxymethyl}quinoline succinic acid or 2-[4-(1-methyl-4-pyridin-4-yl-1H-pyrazol-3-yl)-phenoxymethyl]quinoline succinic acid (see Schmidt, et al. J Pharmacol Exp Ther (2008) 325:681-690; Threlfall, et al., J Pharmacol Exp Ther (2009) 328(3): 785-795). 0% of inhibition is determined by using DMSO (1% final concentrations).
# A Labcyte Echo 555 (Labcyte, Sunnyvale, Calif.) is used to dispense 200 nL from each well of the titration plate to the 384 well assay plate. A solution of enzyme (1/1600 dilution from aliquots; sufficient to produce 20% substrate conversion) and a separate solution of FAM-labeled cAMP PDE from Molecular Devices (product # R7506), at a final concentration of 50 nM are made in the assay buffer (10 mM Tris HCl, pH 7.2, 10 mM MgCl2, 0.05% NaN3 0.01% Tween-20, and 1 mM DTT). The enzyme and the substrate are then added to the assay plates in two consecutive additions of 10 μL, and then shaken to mix. The reaction is allowed to proceed at room temperature for 30 minutes. A binding solution is then made from the kit components, comprised of 80% Solution A, 20% Solution B and binding reagent at a volume of 1600 the total binding solution. […]
# Chain of human PDE10A2 (Q9Y233 267-1055): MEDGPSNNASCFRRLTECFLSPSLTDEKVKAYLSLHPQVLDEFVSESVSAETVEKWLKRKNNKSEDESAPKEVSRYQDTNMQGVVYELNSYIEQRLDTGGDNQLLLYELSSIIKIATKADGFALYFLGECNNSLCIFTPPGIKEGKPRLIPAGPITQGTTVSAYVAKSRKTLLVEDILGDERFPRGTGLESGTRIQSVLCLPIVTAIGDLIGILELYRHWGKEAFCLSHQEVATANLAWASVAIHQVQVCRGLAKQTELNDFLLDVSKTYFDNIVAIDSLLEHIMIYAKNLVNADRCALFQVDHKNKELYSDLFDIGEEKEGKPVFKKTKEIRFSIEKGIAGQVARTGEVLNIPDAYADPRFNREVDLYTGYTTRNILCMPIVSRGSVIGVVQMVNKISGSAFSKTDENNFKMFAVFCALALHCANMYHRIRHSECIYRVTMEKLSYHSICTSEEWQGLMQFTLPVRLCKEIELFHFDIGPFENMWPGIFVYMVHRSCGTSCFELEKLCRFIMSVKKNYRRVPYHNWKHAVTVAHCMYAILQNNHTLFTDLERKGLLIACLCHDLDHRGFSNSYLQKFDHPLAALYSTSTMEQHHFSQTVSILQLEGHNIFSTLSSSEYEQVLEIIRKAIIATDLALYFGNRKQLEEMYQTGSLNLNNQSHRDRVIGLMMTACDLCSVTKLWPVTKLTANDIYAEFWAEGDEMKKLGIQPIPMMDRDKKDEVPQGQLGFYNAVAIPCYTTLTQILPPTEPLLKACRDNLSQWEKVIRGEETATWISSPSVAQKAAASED
row,Structure (SMILES),Ki [nM]
1,"COc1ccc(Cc2nc(C)nn2-c2cc(/C=C/c3ccc4ccccc4n3)nc(C)n2)cc1OC [Cpd 18, (E)-2-(2-(6-(5-(3,4-dimethoxybenzyl)-3-methyl-1H-1,2,4-triazol-1-yl)-2-methylpyrimidin-4-yl)vinyl)quinoline]",0.002
2,"COc1ccc(Cc2nc(C)nn2-c2cc(/C=C/c3ccccn3)nc(C)n2)cc1OC [Cpd 19, (E)-4-(5-(3,4-dimethoxybenzyl)-3-methyl-1H-1,2,4-triazol-1-yl)-2-methyl-6-(2-(pyridin-2-yl)vinyl)pyrimidine]",0.002
3,"COc1ccc(Cc2nc(C)nn2-c2cc(/C=C/c3ccc(C)cn3)nc(C)n2)cc1OC [Cpd 20, (E)-4-(5-(3,4-dimethoxybenzyl)-3-methyl-1H-1,2,4-triazol-1-yl)-2-methyl-6-(2-(5-methylpyridin-2-yl)vinyl)pyrimidine]",0.11
4,"COc1ccc(Cc2nc(C)nn2-c2cc(C3CC3c3nc(C)no3)nc(C)n2)cc1OC (stereo not shown) [Cpd 24, 5-(2-(6-(5-(3,4-dimethoxybenzyl)-3-methyl-1H-1,2,4-triazol-1-yl)-2-methylpyrimidin-4-yl)cyclopropyl)-3-methyl-1,2,4-oxadiazole]",248
5,"COc1ccc(Cc2nc(C)nn2-c2cc([C@H]3C[C@@H]3c3nc4ccccc4[nH]3)nc(C)n2)cc1OC [Cpd 25, 2-((1S,2S)-2-(6-(5-(3,4-dimethoxybenzyl)-3-methyl-1H-1,2,4-triazol-1-yl)-2-methylpyrimidin-4-yl)cyclopropyl)-1H-benzo[d]imidazole]",0.027
6,"COc1ccc(Cc2nc(C)nn2-c2cc([C@@H]3C[C@H]3c3nc4ccccc4[nH]3)nc(C)n2)cc1OC [Cpd 26, 2-((1R,2R)-2-(6-(5-(3,4-dimethoxybenzyl)-3-methyl-1H-1,2,4-triazol-1-yl)-2-methylpyrimidin-4-yl)cyclopropyl)-1H-benzo[d]imidazole]",0.005
7,"COc1ccc(Cc2nc(C)nn2-c2cc(C3CC3c3nnc(C)o3)nc(C)n2)cc1OC (stereo not shown) [Cpd 27, 2-(2-(6-(5-(3,4-dimethoxybenzyl)-3-methyl-1H-1,2,4-triazol-1-yl)-2-methylpyrimidin-4-yl)cyclopropyl)-5-methyl-1,3,4-oxadiazole]",88
8,"COc1ccc(Cc2nc(C)nn2-c2cc(C3CC3c3nc4ccccc4n3C)nc(C)n2)cc1OC (stereo not shown) [Cpd 28, 2-(2-(6-(5-(3,4-dimethoxybenzyl)-3-methyl-1H-1,2,4-triazol-1-yl)-2-methylpyrimidin-4-yl)cyclopropyl)-1-methyl-1H-benzo[d]imidazole]",0.003
9,"COc1ccc(Cc2nc(C)nn2-c2cc(C3CC3c3nnc(C)s3)nc(C)n2)cc1OC (stereo not shown) [Cpd 29, 2-(2-(6-(5-(3,4-dimethoxybenzyl)-3-methyl-1H-1,2,4-triazol-1-yl)-2-methylpyrimidin-4-yl)cyclopropyl)-5-methyl-1,3,4-thiadiazole]",9.8
10,"COc1ccc(Cc2nc(C)nn2-c2cc(C3CC3c3ccc(C)cn3)nc(C)n2)cc1OC (stereo not shown) [Cpd 35, 4-(5-(3,4-dimethoxybenzyl)-3-methyl-1H-1,2,4-triazol-1-yl)-2-methyl-6-(2-(5-methylpyridin-2-yl)cyclopropyl)pyrimidine]",0.21
11,"COc1ccc(Cc2nc(C)nn2-c2cc(C3CC3c3nc4ccccc4[nH]3)nc(C)n2)cc1OC (stereo not shown) [Cpd 38, 2-(2-(6-(5-(3,4-dimethoxybenzyl)-3-methyl-1H-1,2,4-triazol-1-yl)-2-methylpyrimidin-4-yl)cyclopropyl)-1H-benzo[d]imidazole]",0.005
12,"COc1ccc(Cc2nc(C)nn2-c2cc(C3CC3c3cc4n(n3)CCC4)nc(C)n2)cc1OC (stereo not shown) [Cpd 42, 2-(2-(6-(5-(3,4-dimethoxybenzyl)-3-methyl-1H-1,2,4-triazol-1-yl)-2-methylpyrimidin-4-yl)cyclopropyl)-5,6-dihydro-4H-pyrrolo[1,2-b]pyrazole]",0.5
13,"COc1ccc(C2CC2c2cc(-n3nc(C)nc3Cc3ccc(OC)c(OC)c3)nc(C)n2)nc1 (stereo not shown) [Cpd 43, 4-(5-(3,4-dimethoxybenzyl)-3-methyl-1H-1,2,4-triazol-1-yl)-6-(2-(5-methoxypyridin-2-yl)cyclopropyl)-2-methylpyrimidine]",0.39
14,"Cc1nc(C2CC2c2nc3ccccc3n2-c2ccccc2)cc(-n2nc(C)nc2C)n1 (stereo not shown) [Cpd 51, 2-(2-(6-(3,5-dimethyl-1H-1,2,4-triazol-1-yl)-2-methylpyrimidin-4-yl)cyclopropyl)-1-phenyl-1H-benzo[d]imidazole]",38.8
15,"Cc1nc(C2CC2c2nc3ccccc3n2Cc2ccccc2)cc(-n2nc(C)nc2C)n1 (stereo not shown) [Cpd 52, 1-benzyl-2-(2-(6-(3,5-dimethyl-1H-1,2,4-triazol-1-yl)-2-methylpyrimidin-4-yl)cyclopropyl)-1H-benzo[d]imidazole]",13.4
16,"Cc1nc(C2CC2c2nc3cc(F)c(F)cc3[nH]2)cc(-n2nc(C)nc2C)n1 (stereo not shown) [Cpd 54, 2-(2-(6-(3,5-dimethyl-1H-1,2,4-triazol-1-yl)-2-methylpyrimidin-4-yl)cyclopropyl)-5,6-difluoro-1H-benzo[d]imidazole]",25.1

# Next, values leading:
row,Ki [nM],Structure (SMILES)
1,0.027,"COc1ccc(Cc2nc(C)nn2-c2cc(CCc3ccc4ncccc4n3)nc(C)n2)cc1OC [Cpd 16, 2-(2-(6-(5-(3,4-dimethoxybenzyl)-3-methyl-1H-1,2,4-triazol-1-yl)-2-methylpyrimidin-4-yl)ethyl)-1,5-naphthyridine]"
2,3.5,"Cc1nc(C2CC2c2nc3ccccc3n2C)cc(-n2nc(C)nc2C)n1 (stereo not shown) [Cpd 36, 2-(2-(6-(3,5-dimethyl-1H-1,2,4-triazol-1-yl)-2-methylpyrimidin-4-yl)cyclopropyl)-1-methyl-1H-benzo[d]imidazole]"
3,1.4,"Cc1nc([C@@H]2C[C@H]2c2nc3ccccc3n2C)cc(-n2nc(C)nc2C)n1 [Cpd 37, 2-((1R,2R)-2-(6-(3,5-dimethyl-1H-1,2,4-triazol-1-yl)-2-methylpyrimidin-4-yl)cyclopropyl)-1-methyl-1H-benzo[d]imidazole]"
4,918,"Cc1nc(C2CC2c2nnc(C)o2)cc(-n2nc(C)nc2C)n1 (stereo not shown) [Cpd 39, 3,5-dimethyl-1-(2-methyl-6-(2-(5-methyl-1,3,4-oxadiazol-2-yl)cyclopropyl)pyrimidin-4-yl)-1H-1,2,4-triazol-4-ium]"
5,124,"Cc1nc(C2CC2c2nnc(C)s2)cc(-n2nc(C)nc2C)n1 (stereo not shown) [Cpd 40, 2-(2-(6-(3,5-dimethyl-1H-1,2,4-triazol-1-yl)-2-methylpyrimidin-4-yl)cyclopropyl)-5-methyl-1,3,4-thiadiazole]"
6,6.8,"Cc1nc(C2CC2c2nc3ccccc3[nH]2)cc(-n2nc(C)nc2C)n1 (stereo not shown) [Cpd 41, 2-(2-(6-(3,5-dimethyl-1H-1,2,4-triazol-1-yl)-2-methylpyrimidin-4-yl)cyclopropyl)-1H-benzo[d]imidazole]"
7,0.21,"Cc1ccc(C2CC2c2cc(-n3nc(C)nc3Cc3ccccc3)nc(C)n2)nc1 (stereo not shown) [Cpd 49, 4-(5-benzyl-3-methyl-1H-1,2,4-tiazol-1-yl)-2-methyl-6-(2-(5-methylpyridin-2-yl)cyclopropyl)pyrimidine]"
8,0.14,"Cc1ccc(CCc2cc(-n3nc(C)nc3C)nc(C)n2)nc1 [Cpd 50, 4-(3,5-dimethyl-1H-1,2,4-triazol-1-yl)-2-methyl-6-(2-(5-methylpyridin-2-yl)ethyl)pyrimidine]"
9,16.8,"Cc1nc(C2CC2c2nc3cccc(C)c3[nH]2)cc(-n2nc(C)nc2C)n1 (stereo not shown) [Cpd 55, 2-(2-(6-(3,5-dimethyl-1H-1,2,4-triazol-1-yl)-2-methylpyrimidin-4-yl)cyclopropyl)-7-methyl-1H-benzo[d]imidazole]"
